The record followed here is patent US7256172B1, “Method of treatment and agents useful for same” (The University of Melbourne, priority 1998, dated 2007).

Assay [1] has as its system anaesthetised rat. The procedure:
Male Sprague-Dawley rats (8 weeks) were anaesthetised (xylazine 10 mg/kg, ketamine 100 mg/kg and 50 mg/kg each 30 min thereafter, i.p.) and cannulae were placed in the trachea, carotid artery and jugular vein. Spontaneous breathing was stopped by an intravenous injection of pancuronium bromide (0.4 mg/kg and 0.2 mg/kg each 30 min thereafter) and rats were ventilated (tidal volume 8 ml/kg at 90 breaths/min, SAR-830 ventilator, CWE Inc., Ardmore, USA). Breath-to-breath measurement of airway resistance (RD and dynamic compliance (Cdyn) were calculated from flow and transpulmonary pressure recordings (PMS800, Mumed, London, UK). Flow was measured over the tracheal cannula (Fleisch pneumotachograph, Lausanne, Switzerland) and transpulmonary pressure was measured with a differential pressure transducer, one end being connected to the outlet of the tracheal cannula, the other to an air-filled cannula inserted in the oesophagus. A rectal probe was used to monitor body temperature. Serotonin (5-HT; 0.3 mg/kg i.v.) was administered as a bolus dose at 5 min intervals until reproducible changes in RL and Cdyn were obtained. Prior to each 5-HT challenge, lungs were hyperinflated once (by delivering twice the tidal volume) to prevent and reverse atelecasis. […]

In assay [2] the test system is mouse trachea. The text has this: Mice were killed by a lethal overdose of sodium pentobarbitone and the tracheae rapidly excised. The trachea was opened longitudinally through the ventral cartilage rings to make a fiat sheet. Each sheet of trachea was mounted between two perspex chambers so that the mucosal (luminal) and submucosal and bathed with warmed, oxygenated Krebs' solution, independently on each side. Electrodes in the chambers allowed recordings of transepithelial potential difference using an amplifier. The tissue was voltage clamped at 0 mV by passing a current from the amplifier via another set of electrodes in the chambers. The amount of current required to maintain voltage at 0 mV is defined as the short circuit current (Isc) and is conventionally used as a measure of all ionic fluxes across the preparation.
(§1) After an equilibration time of 30 min, compounds for testing and drugs to elucidate the mechanism of any changes in Isc to the test compounds were added to either side of the tracheal epithelium (ie to either bath). Compounds used for increasing Isc were PGE2, adenosine 5′-triphosphate (ATP), uridine 5′-triphosphate (UTP) and the PAR1-, PAR2- and PAR4-activating peptides, SFLLRN (SEQ ID NO:1) and SLIGRL (SEQ ID NO:2) and GYPGQY (SEQ ID NO:6), respectively. These stimulants were added cumulatively with controls for any time-dependent tachyphylaxis.

Assay [3] deals with pig tracheal muscle strips. As to conditions: contracted to approximately 30% maximal with carbachol. As to the method: Pig tracheal muscle strips of approximately 2 mm×2 mm in size and with mucosa were prepared by dissecting away overlying cartilage. Strips were suspended in Krebs solution under 1 g passive tension, and contracted to approximately 30% maximal contraction with carbachol (40 μM).

In assay [4] the test system is guinea-pig taenia coli. As to the method:
2 cm strips of teania coil with intact Auerbach's plexus, but which had been stripped of the mucosa, were suspended in Kreb's solution under 1 g passive tension, and contracted with histamine (1 μM) to induce active tension.

Assay [5] relates to human bronchial epithelium. Conditions: after amiloride. The procedure:
Human airways were obtained from discarded sections of lungs of patients undergoing lobectomy operations at the Royal Melbourne Hospital, Melbourne, Australia usually for lung cancer. The dissection and set up were as described above for the mouse trachea.
as §1

Assay [6] concerns monkey small bronchi. The source says: The experimental details are similar to those for the mouse isolated bronchi. Briefly, approximately 2 mm long rings of small bronchi were mounted on wire hooks. In each trace, half log concentrations are not depicted for clarity.

No end group written: not given here.

As for SLIGRL-NH2 [SLIGRL—NH2], the “inhibition of 5-HT-induced changes in airway resistance (RL) and dynamic compliance (Cdyn)” value in assay [1] (30 sec aerosol of 0.1 mg/ml solution) is given as 50–70%. Further, in assay [1] (aerosol of 1 mg/ml), the “duration of inhibition of bronchoconstriction to 5-HT” value is listed as “at least 45 min” and the “inhibition of bronchoconstriction to 5-HT” value is given as “complete inhibition”. For the same substance, in assay [2] (cyclooxygenase inhibitor indomethacin), the “increase in Isc in presence of indomethacin” value is recorded as “unaffected”. The “change in Isc” value in assay [2] (luminally applied) is reported as “rapid initial rise in Isc usually followed by some degree of recovery until a steady plateau was reached”.
In the case of SFLLRN [SFLLRN—NH2], the “relaxation of pig tracheal strip” value in assay [3] is given as “slow onset, near maximal relaxation of the tissue comparable in extent to that induced by isoprenaline”. For the same substance, in assay [4] (apamin (100 μM)), the “relaxation in presence of apamin” value is recorded as “inhibited”. In assay [4] (contracted with histamine (1 μM)), the “relaxation of taenia coli” value was “relaxed in response to TRAP in a concentration-dependent manner”. Further, in assay [5], the “change in Isc” value is “increases in Ise”. Moreover, the “effect on monkey small bronchi” value in assay [6] was “smooth muscle relaxing effects”.
